Laboratory results reported in PMC3510254 (PLoS Pathogens, 2012).
Where no end group is shown, it is not given here.

Columns and labels:
immunoproteasome = biological target: T1, immunoproteasome (Homo sapiens, UniProt P28062+P28065+P40306); assay: In vitro proteasomal peptide digest with mass spectrometry; type: in vitro ADME; conditions: 25-mer precursor, 1, 2, 4 and 6 hours; 2 µg or 4 µg proteasome; extracted ion chromatograms; Fig 6; triplicate
T1 construct: Constitutive and immuno-20S proteasomes were purified from LCL721.174 and LCL721 human EBV-transformed B cell lines; endogenous in cells; host or cells: LCL721 human EBV-transformed B cell line

proteasome = assay: Proteasome inhibition of endogenous antigen processing in vHCV 827-infected B-LCLs, IFN-γ read-out of CTL lines; type: cell-based, human
immunoproteasome (20S) [1] = assay: purified immunoproteasome, 4 µg in the degradation experiment, in digestion buffer; conditions: human, up to 6 hours
[2] = system: constitutive proteasome (20S); assay: purified constitutive proteasome, 4 µg in the degradation experiment, in digestion buffer; conditions: human, up to 6 hours
immunoproteasome (20S) [3] = assay: purified immunoproteasome in digestion buffer (20 mM HEPES-NaOH pH 7.6, 2 mM MgAc2, 0.5 mM DTT); conditions: human, up to 6 hours
[4] = system: constitutive proteasome (20S); assay: purified constitutive proteasome in digestion buffer (20 mM HEPES-NaOH pH 7.6, 2 mM MgAc2, 0.5 mM DTT); conditions: human, up to 6 hours

With VRVCEKMARMILMTHFPLAVMGSSY [B27-in-A2] the “precursor degradation rate relative to A2-in-A2 peptide, immunoproteasomal digestion” value (immunoproteasome) was “degraded slightly more slowly than the A2-in-A2 peptide”.
With `CC(=O)N[C@@H](CSC(=O)[C@]1([C@@H](O)C(C)C)NC(=O)[C@H](C)[C@@H]1O)C(=O)O` [lactacystin] the “reductions in the number of responding CD8+ T cells” value (proteasome) was 30–70%.
`CC[C@H](C)[C@H](NC(=O)[C@H]([C@@H](C)CC)N(C)C(C)=O)C(=O)N[C@H](C(=O)N[C@@H](CC(C)C)C(=O)[C@@]1(C)CO1)[C@@H](C)O` [epoxomicin] was tested, and the “effect on induction of epitope-specific IFN-γ production and number of responding CD8+ T cells” value (proteasome) was “delay the induction of epitope-specific IFN-γ production and considerably decrease the number of responding CD8+ T cells”.
In the case of VRVCEKMARMILMTHFPLAVMGSSY, the fragment found (immunoproteasome (20S) [1]) is reported as “ARMILMTHF” and the fragment found [2] is reported as “ARMILMTHF”.
For AQTFLATCINGVCWTVYHGAGTRT, the fragment found (immunoproteasome (20S) [3]) was “CINGVCWTV” and the fragment found [4] was “CINGVCWTV”.
